{"source": "patent US6706509B2", "about": "“Oncoprotein protein kinase” (The Regents of the University of California, priority 1993, dated 2004)", "key": {"JNK": {"system": "JNK", "test": "Solid-state phosphorylation assay of JNK in FR3T3, CV-1 and PC12 cells", "assay_type": "cell-based", "conditions": "for JNK activity, effect of A23187 or CsA treatment: FR3T3, CV-1 and PC12 cells, A23187 1 μg/ml, CsA 100 ng/ml", "method": "We examined whether elevated intracellular Ca^++ affects JNK activation in other cells. […] Cultures of FR3T3, CV-1, PC12 and mouse thymocytes were incubated for 15 minutes in the presence of TPA (50 ng/ml, T), A23817 (1 μg/ml, A) and/or CsA (100 ng/ml), as indicated. WCE prepared from 2-4×10^5 cells for the established cell lines and 1.5×10^6 cells for primary thymocytes were incubated with GSTcJun(1-223)-GSH agarose beads. After washing, JNK activity was determined by solid-state phosphorylation assay as described above."}, "[1]": {"system": "AP-1 responsive human collagenase promoter (-73Col-LUC)", "test": "AP-1 transcriptional activity, -73Col-LUC luciferase reporter in Jurkat cells", "assay_type": "cell-based", "conditions": "for -73Col-LUC luciferase activity, agent administered alone: TPA 50 ng/ml or A23187 1 μg/ml, 9 hours; for -73Col-LUC luciferase activity, two costimuli together: TPA+A23187 or anti-CD3+anti-CD28", "method": "T Ag Jurkat cells, a derivative of the human Jurkat T-cell line stably transfected with the SV40 large T antigen (a gift from Dr. G. Crabtree) were grown to 10^6/ml, then resuspended at 2×10^7/ml in fresh complete medium. 10^7 cells (0.5 ml) were mixed with reporter plasmids (5 μg, −79 jun-LUC; 10 μg, −73/+63 Col-LUC or −60/+63 Col-LUC; 5 μg IL2-LUC) at room temperature for 10 minutes, then electroporated at 250 V, 960 uF in a 0.4 cm cuvette using a Bio-Rad GenePulser. After electroporation, cells were immediately put on ice for 10 minutes, then resuspended in 10 ml complete medium for 24 hours before stimulation. 0.5 μg of pSRaIIc-Jun were used to transfect 10^7 Jurkat cells. Luciferase activity was determined as described (Deng and Karin, supra., 1993).\nThe effects of the different stimuli on AP-1 transcriptional activity in Jurkat cells were examined using a truncated, AP-1 responsive, human collagenase promoter (Angel, et al., Cell, 49:729-739, 1987) fused to the luciferase (LUC) reporter gene. Jurkat cells were transfected with 10 μg of either −73Col-LUC or −60Col-LUC reporter plasmids. 24 hours after transfection, the cells were aliquoted into 24 well plates and incubated for 9 hours with 50 ng/ml TPA, 1 μg/ml A23187 or 100 ng/ml CsA, either alone or in combinations, as indicated. The cells were harvested and luciferase activity was determined. The results shown are averages of three experiments done in triplicates."}, "jun-B": {"system": "jun-B", "test": "Northern blot of jun-B expression in Jurkat cells", "assay_type": "cell-based, human", "conditions": "40 minutes; for effect on jun-B induction by TPA: A23187 1 μg/ml or CsA 100 ng/ml", "method": "Exponentially growing Jurkat cells (10^6/ml) grown in complete RPMI medium was pretreated with CsA for 15 minutes when applicable, then subjected to various treatments for another 40 minutes. Total cytoplasmic RNA was extracted as previously described (Angel, et al., Cell, 49:729-739, 1987). 10 μg RNA was denatured by incubating with glyoxal for 60 minutes at 55° C. and fractionated on a 1% agarose gel in phosphate buffer. The fractionated RNA was blotted to Zetabind Nylon membrane (CUNO Labs) and hybridized to ^32P-labelled cDNA probes specific for c-jun, jun-B, jun-D, c-fos, α-tubulin and IL-2.\nDuring the first stage of T lymphocyte activation, early response genes are rapidly included (Crabtree, Science, 243:355,361, 1989; Zipfel, et al., Mol Cell Bio., 9:1041-1048, 1989). Induction of jun and fos genes during activation of the Jurkat T cell line was investigated. Two different co-stimulatory paradigms were used, one employing TPA and the Ca^2+ ionophore A23187, and the second based on simultaneous stimulation of the TCR complex with an antibody to its CD3 component (OKT3; Van Wauwe, et al., J. Immunol., 124:2708-2713, 1980) and stimulation of the CD28 auxiliary receptor with an anti-CD28 antibody (9.3; Hansen, et al., Immunogenetics, 10:247-260, 1993; June, et al., Immunol. Today, 11:211-216, 1990). Total cytoplasmic RNA was extracted from Jurkat cells that were incubated with 50 ng/ml TPA (T), 1 μg/ml A23187 (A) or 100 ng/ml cyclosporin A (CsA) for 40 minutes, either alone or in combinations, as indicated. After fractionation of 10 μg samples on an agarose gel and transfer to nylon membrane, the level of c-jun, jun-B, jun-D, c-fos and α-tubulin expression was determined by hybridization to random primed cDNA probes."}}, "data": [{"compound": "CNc1ccc2oc(C[C@H]3O[C@@]4(CC[C@H]3C)O[C@H]([C@H](C)C(=O)c3ccc[nH]3)[C@H](C)C[C@H]4C)nc2c1C(=O)O", "note": "[A23187]", "values": [{"measurement": "JNK activity, effect of A23187 or CsA treatment", "setting": "JNK", "value": "In none of these cells was JNK activity affected"}, {"measurement": "-73Col-LUC luciferase activity, agent administered alone", "setting": "[1]", "value": "marginal effects"}, {"measurement": "-73Col-LUC luciferase activity, two costimuli together", "setting": "[1]", "value": "synergistic activation"}, {"measurement": "effect on jun-B induction by TPA", "setting": "jun-B", "value": "not affected"}]}, {"compound": "CCCCCCCCCCCCCC(=O)O[C@@H]1[C@@H](C)[C@@]2(O)[C@@H](C=C(CO)C[C@]3(O)C(=O)C(C)=C[C@@H]23)[C@H]2C(C)(C)[C@]12OC(C)=O", "note": "[TPA]", "values": [{"measurement": "JNK activity, TPA alone", "setting": "JNK; CV1 and FR3T3 cells, TPA 50 ng/ml, 15 minutes", "value": "weakly stimulated"}, {"measurement": "-73Col-LUC luciferase activity, agent administered alone", "setting": "[1]", "value": "marginal effects"}, {"measurement": "-73Col-LUC luciferase activity, two costimuli together", "setting": "[1]", "value": "synergistic activation"}, {"measurement": "jun-B expression, agent alone", "setting": "jun-B; TPA 50 ng/ml", "value": "induced"}]}, {"compound": "anti-CD3: anti-CD3 monoclonal antibody OKT3", "values": [{"measurement": "-73Col-LUC luciferase activity, two costimuli together", "setting": "[1]", "value": "synergistic activation"}]}, {"compound": "cyclosporin A [CsA]", "values": [{"measurement": "JNK activity, effect of A23187 or CsA treatment", "setting": "JNK", "value": "In none of these cells was JNK activity affected"}, {"measurement": "effect on induction of -73Col-LUC", "setting": "[1]; CsA 100 ng/ml with TPA+A23187, 9 hours", "value": "inhibited"}, {"measurement": "effect on jun-B induction by TPA", "setting": "jun-B", "value": "not affected"}]}]}
